According to US20090170882A1, “Methods and compositions” (priority 2004, published 2009):
pIC50: −log10 of the molar value.

Tests used:
A549 cells = settings: data provided by National Cancer Institute, Developmental Therapeutic Program; cited from earlier work
KSP motor domain = target: T1, KSP motor domain (Homo sapiens, UniProt P52732); experiment: KSP ATPase assay (IC50 for KSP activity); type: biochemical
T1 construct: 100 nM KSP motor domain, 50 μg/ml microtubules
T1 sequence (P52732 18-359 limits assumed): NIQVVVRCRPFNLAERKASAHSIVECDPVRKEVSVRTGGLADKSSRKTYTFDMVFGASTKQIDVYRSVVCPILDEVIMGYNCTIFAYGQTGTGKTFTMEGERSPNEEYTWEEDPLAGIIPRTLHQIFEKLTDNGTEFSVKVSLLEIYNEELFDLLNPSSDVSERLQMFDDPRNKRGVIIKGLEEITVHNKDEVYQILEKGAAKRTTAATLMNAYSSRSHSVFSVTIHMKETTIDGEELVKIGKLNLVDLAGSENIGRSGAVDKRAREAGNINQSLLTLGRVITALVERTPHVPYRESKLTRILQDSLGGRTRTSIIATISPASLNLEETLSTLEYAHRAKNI
Method: One measure of inhibition is IC50, defined as the concentration of the composition at which the activity of KSP is decreased by fifty percent relative to a control. Preferred compositions have […] of less than about 1 mM, with preferred embodiments having IC50's of less than about 100 μM, with more preferred embodiments having IC50's of less than about 10 μM, with particularly preferred embodiments having IC50's of less than about 1 μM, and especially preferred embodiments having IC50's of less than about 100 nM, and with the most preferred embodiments having IC50's of less than about 10 nM. Measurement of IC50 is done using an ATPase assay.
Measurement of a composition's IC50 for KSP activity uses an ATPase assay. The following solutions are used: Solution 1 consists of 3 mM phosphoenolpyruvate potassium salt (Sigma P-7127), 2 mM ATP (Sigma A-3377), 1 mM DTT (Sigma D-9779), 5 μM paclitaxel (Sigma T-7402), 10 ppm antifoam 289 (Sigma A-8436), 25 mM Pipes/KOH pH 6.8 (Sigma P6757), 2 mM MgC12 (VWR JT400301), and 1 mM EGTA (Sigma E3889). Solution 2 consists of 1 mM NADH (Sigma N8129), 0.2 mg/ml BSA (Sigma A7906), pyruvate kinase 7 U/ml, L-lactate dehydrogenase 10 U/ml (Sigma P0294), 100 nM KSP motor domain, 50 μg/ml microtubules, 1 mM DTT (Sigma D9779), 5 μM paclitaxel (Sigma T-7402), 10 ppm antifoam 289 (Sigma A-8436), 25 mM Pipes/KOH pH 6.8 (Sigma P6757), 2 mM MgC12 (VWR JT4003-01), and 1 mM EGTA (Sigma E3889). Serial dilutions (8-12 two-fold dilutions) of the composition are made in a 96-well microtiter plate (Corning Costar 3695) using Solution 1. Following serial dilution each well has 50 μl of Solution 1. The reaction is started by adding 50 μl of solution 2 to each well. This may be done with a multichannel pipettor either manually or with automated liquid handling devices. The microtiter plate is then transferred to a microplate absorbance reader and multiple absorbance readings at 340 nm are taken for each well in a kinetic mode. The observed rate of change, which is proportional to the ATPase rate, is then plotted as a function of the compound concentration. For a standard IC50 determination the data acquired is fit by the following four parameter equation using a nonlinear fitting program (e.g., Grafit 4): […]
where y is the observed rate and x the compound concentration. […] By this we mean that although most of the compounds that inhibited KSP activity biochemically did inhibit cell proliferation, for some, at the highest concentration tested (generally about 20 μM), cell growth was inhibited less than 50%. […] Anti-proliferative compounds that have been successfully applied in the clinic to treatment of cancer (cancer chemotherapeutics) have IC50's that vary greatly. […]

[1] = test system: tumor cell lines including SKOV3 and Colo205; experiment: Inhibition of cellular proliferation in tumor cell lines (MTS, 48 hours); type: cell-based, human; settings: various tumor cell lines including SKOV3 and Colo205; 'typically'
Method: Cells were plated in 96-well plates at densities from 1000-2500 cells/well of a 96-well plate and allowed to adhere/grow for 24 hours. They were then treated with various concentrations of drug for 48 hours. The time at which compounds are added is considered T0. A tetrazolium-based assay using the reagent 3-(4,5-dimethylthiazol-2-yl)-5-(3-carboxymethoxyphenyl)-2-(4-sulfophenyl)-2H-tetrazolium (MTS) (U.S. Pat. No. 5,185,450) (see Promega product catalog #G3580, CellTiter 96® AQueous One Solution Cell Proliferation Assay) was used to determine the number of viable cells at T0 and the number of cells remaining after 48 hours compound exposure. The number of cells remaining after 48 hours was compared to the number of viable cells at the time of drug addition, allowing for calculation of growth inhibition.
The growth over 48 hours of cells in control wells that had been treated with vehicle only (0.25% DMSO) is considered 100% growth and the growth of cells in wells with compounds is compared to this.
An IC50 was calculated by plotting the concentration of compound in μM vs the percentage of cell growth of cell growth in treated wells. The IC50 calculated for the compounds is the estimated concentration at which growth is inhibited by 50% compared to control, i.e., the concentration at which:
All concentrations of compounds are tested in duplicate and controls are averaged over 12 wells. A very similar 96-well plate layout and IC50 calculation scheme is used by the National Cancer Institute (see Monks, et al., J. Natl. Cancer Inst. 83:757-766 (1991)).

IC50 for inhibition of KSP (KSP motor domain) | IC50 for inhibition of proliferation of tumor cell lines [1] | SMILES | pIC50 (A549 cells)
not active | not active | CS(=O)(=O)Nc1cccc2c1[nH]c1ccc(C(F)(F)F)cc12 [N-[6-(trifluoromethyl)-9H-carbazol-1-yl]methanesulfonamide] | –
not active | not active | CS(=O)(=O)Nc1ccc2[nH]c3ccc(C(F)(F)F)cc3c2c1 [6-(trifluoromethyl-9H-carbazol-3-yl)-methanesulfonamide] | –
not active | not active | Nc1cccc2c1[nH]c1ccc(C(F)(F)F)cc12 [6-(trifluoromethyl)-9H-carbazol-1-ylamine] | –
not active | not active | NC(=O)Nc1ccc2[nH]c3ccc(C(F)(F)F)cc3c2c1 [(6-Trifluoromethyl-9H-carbazol-3-yl)-urea] | –

Further lines, the molecule ahead of its results:

SMILES | IC50 for inhibition of KSP (KSP motor domain) | IC50 for inhibition of proliferation of tumor cell lines [1] | pIC50 (A549 cells)
O=c1[nH]cc(F)c(=O)[nH]1 [5-fluorouracil] | – | – | 6.00
COc1cccc2c1C(=O)c1c(O)c3c(c(O)c1C2=O)C[C@@](O)(C(=O)CO)C[C@@H]3O[C@H]1C[C@H](N)[C@H](O)[C@H](C)O1 [doxorubicin] | – | – | 7.20
CC(=O)O[C@H]1C(=O)[C@@]2(C)[C@H]([C@H](OC(=O)c3ccccc3)[C@]3(O)C[C@H](OC(=O)[C@H](O)[C@@H](NC(=O)c4ccccc4)c4ccccc4)C(C)=C1C3(C)C)[C@]1(OC(C)=O)CO[C@@H]1C[C@@H]2O [paclitaxel] | – | – | 8.40
NC(=O)NO [hydroxyurea] | – | – | 3.30
